Data on one molecule can be found in patent publication US10674699B2, “Endophyte enhanced seedlings with increased pest tolerance” (priority 2006, dated 2020).

Data set [1] can be described thus: Rugulosin analysis of needles by HPLC (toxin in planta). Particulars: field trees analyzed in 2005, limit of detection 150 ng/g. Also noted: species or system Picea glauca. The method, then: Rugulosin of purity>95% was used for standards. The presence of rugulosin was then to be determined in a sub-sample of 113 randomly-selected trees of the 330 trees determined to be endophyte positive by antibody. A 100 mg sample of freeze-dried needles was ground to a fine power as describe above and extracted with 10 mL of ice cold petroleum ether by stirring for 45 min under conditions of low light. The flask was kept on ice during the extracting and was covered with aluminium foil to prevent degradation by light. The suspension was filtered by suction and discarded. The needles were returned to the flask and extracted with 10 mL of chloroform for 45 min as above for petroleum ether. The new suspension was then filtered by suction and retained while the needles were discarded. The chloroform extract was washed with 10 mL of 5% NaHCO3 in a separatory funnel. […]
The dried extracts were re-dissolved in 50 μL of acetonitrile, 10 μL was removed and injected into an 1100 series Agilent Technologies HPLC-DAD, using a Synergi Max RP 80A, 250×4.6 column (Phenomonex) and a gradient method adapted from Frisvad (1987). […] Samples were analysed at 389 nm, the maximum UVNIS absorption for rugulosin and peak identity was confirmed by full spectrum data from the diode array detector. The limit of quantification was 150 ng/g freeze dried powdered material; recoveries from spiked needles averaged 75%. […]

Data set [2] concerns Choristoneura fumiferana (spruce budworm) larvae. Particulars: Calhoun et al. 1992; cited from earlier work.
Data set [3] concerns spruce budworm larvae. The note with it: Miller et al. 2002; cited from earlier work.

On to `Cc1cc(O)c2c(c1)C(=O)[C@]13C(=C2O)C(=O)[C@@H]2[C@H](O)[C@H]1[C@@H]1[C@@H](O)[C@H]3C(=O)C3=C(O)c4c(O)cc(C)cc4C(=O)[C@]312` [rugulosin], for which the “individual branch samples positive for rugulosin or its degradation product” value in data set [1] worked out at 89%. In addition, the “toxicity to C. fumiferana larvae in an artificial diet” value in data set [2] was “toxic”. For the same molecule, the “toxicity to C. fumiferana larvae in needles” value in data set [3] is on record as “toxic”.
